Measured values from US20050187190A1, “Autoinducer-2 compounds as immunomodulatory agents” (priority 2004, published 2005).

Tests used:
[1] = test system: IL-6 production in J774 macrophages; assay: IL-6 production by stimulated J774 macrophages, ELISA of culture supernatants; format: cell-based, mouse; conditions: for release of IL-6: absence of exogenously-supplied immunostimulatory factors; for production of IL-6: regardless of stimulus: viral ribopolymers, LPS or lipoteichoic acid; for effect on IL-6 production: LPS-treated macrophages
Protocol: (§1) J774.1 macrophages were cultured in RPMI 1640 medium containing 15% fetal calf serum in a humidified 37° C. incubator supplied with 5% CO2. Cells were plated at 50% confluency in 96 well format and allowed to attach overnight. For immunostimulation experiments, cells were incubated overnight in 100 μl of the above medium containing sub-maximal stimulatory levels of inducers: 0.1 μg/mL Salmonella lipopolysaccharide (Sigma), 1 μg/mL lipoteichoic acid (Sigma) or sterile, cell-free bacterially conditioned medium at a final concentration of 10^7 cell equivalents/mL. Following incubation, the medium was removed, centrifuged, and stored at −20° C. for subsequent assay for the presence of released cytokines. Preparation of bacterially conditioned medium Pseudomonas aeruginosa strain PAO1 and Lux^+ or Lux^− strains of Salmonella typhimurium 14028 were cultured in Luria Broth overnight. The optical density of the cultures was measured at 600 nm and cell densities calculated through use of a MacFarland's standard. Bacterial cultures were centrifuged and supernatants were filtered through a 0.2 micron sterile filter to remove all bacteria.
(§2) Centrifuged macrophage culture supernatants were assayed for the presence of secreted IL-1 and IL-6 through use of an ELISA kit according to the manufacturer's directions (R&D Systems, Minneapolis, Minn.). Briefly, 10 μl of culture supernatants were bound to test wells precoated with either anti-IL-1 or anti-IL-6 immunoglobulin. Bound cytokine was detected through use of a secondary cytokine-specific antibody tagged with horseradish peroxidase. Assay samples were developed through use of stabilized tetramethylbenzidine and hydrogen peroxide. Cytokine level, directly proportional to the colorimetric signal, was quantitated by measuring sample absorbance at 450 nm.

[2] = test system: IL-1 production in J774 macrophages; assay: IL-1 production by stimulated J774 macrophages, ELISA of culture supernatants; format: cell-based, mouse; conditions: for release of IL-1: absence of exogenously-supplied immunostimulatory factors; for effect on IL-1 production: LPS-treated macrophages
Protocol: as §1, §2

[3] = test system: nitric oxide production (iNOS activity) in J774 macrophages; assay: Nitric oxide (nitrite) production by LPS-stimulated J774 macrophages; format: cell-based, mouse
Protocol: FIG. 10 is a bar graph showing that AI-2 treatment suppresses nitric oxide production by LPS-stimulated J774 macrophages. “LPS+34,” “LPS+AI-2(5 ul)” and LPS+AI-2(2 ul) represents inhibition by concurrent treatment with LPS and MHF or the indicated amounts of AI-2. “LPS+ribose” is a control to show the amount of nitric oxide production in the absence of an inhibitor.

[4] = biological target: T1, recombinant COX-2 (Homo sapiens, UniProt P35354); assay: Inhibition of recombinant COX-2 prostaglandin synthesis, ELISA for PGE2; format: biochemical
T1 sequence (P35354 18-604): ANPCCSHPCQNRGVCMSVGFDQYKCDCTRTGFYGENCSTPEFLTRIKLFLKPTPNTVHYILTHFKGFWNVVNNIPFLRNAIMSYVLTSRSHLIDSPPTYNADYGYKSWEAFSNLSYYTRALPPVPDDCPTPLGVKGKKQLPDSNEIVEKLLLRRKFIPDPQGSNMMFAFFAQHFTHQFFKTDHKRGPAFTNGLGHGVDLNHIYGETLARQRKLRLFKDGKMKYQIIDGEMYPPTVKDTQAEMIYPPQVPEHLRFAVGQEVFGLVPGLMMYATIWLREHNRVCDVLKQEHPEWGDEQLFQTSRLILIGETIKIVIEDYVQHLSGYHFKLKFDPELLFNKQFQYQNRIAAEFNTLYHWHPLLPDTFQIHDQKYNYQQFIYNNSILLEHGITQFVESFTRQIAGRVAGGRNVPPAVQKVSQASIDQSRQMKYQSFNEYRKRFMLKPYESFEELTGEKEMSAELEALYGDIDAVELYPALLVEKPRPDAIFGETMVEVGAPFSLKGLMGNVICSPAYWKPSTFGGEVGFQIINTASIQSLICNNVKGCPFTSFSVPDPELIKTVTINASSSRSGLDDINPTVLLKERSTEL
Protocol: “Max Inhibition” and “Aspirin/1000 uM” are positive inhibition controls. “Analog/500 uM,” represents the inhibition of prostaglandin synthesis by 500 μM MHF; “AI-2/40 uM” and “AI-2/80 uM” represents the inhibition of prostaglandin synthesis by 40 and 80 μM, respectively of AI-2. “Ribose/500 um” the inhibition of prostaglandin synthesis by 500 μM ribose. Prostaglandin synthesis was indirectly quantitated using an ELISA for PGE2 production.
Extracellular bacterial signals trigger expression of cyclooxygenase-2 (cox-2), which amplifies the cellular IL-6 response by catalyzing production of prostaglandin PGE2.
Aspirin, a non-specific inhibitor of COX-2 served as an inhibition control; prostaglandin synthesis was indirectly quantitated in an ELISA assay.

[5] = test system: MM32; assay: MM32 light production assay (quorum sensing activity); format: cell-based, Vibrio harveyi
Source text: Such agonists and analogs can be readily recognized by their action on the quorum-sensing system of bacteria such as mutant strains of Vibrio harveyi that respond to AI-2 but cannot produce it themselves. For example, AI-2 analogs and agonists can be identified by known techniques, including but not limited to, large-scale screening of compounds through use of the V. harveyi bioassay described in U.S. Pat. No. 6,780,890 and other techniques described therein. Reduction in signaling activity in the presence of a test compound indicates the ability of that compound to, for example, block bacterial pathogenesis by affecting the expression of one or more virulence factors.

[6] = LPS 0.1 μg/mL, concurrent AI-2 40 μM
[7] = LPS-stimulated macrophages, increasing amounts of enzymatically-prepared AI-2

CC(=O)C(=O)[C@@H](O)CO [AI-2]
reduction of overall concentration of IL-6 [1, 6]: approximately 50% | IL-6 production, dose dependence [1, 7]: increasing suppression | release of IL-6 [1]: neither AI-2 nor its biosynthesis co-products, adenine and homocysteine, cause macrophages to release IL-1 or IL-6 | reduction in IL-6 levels ([1]; macrophages stimulated with LPS (0.1 μg/ml), 5 μl of the AI-2 reaction product): ~50% | IC50 ([1]; read-out: IC50, inhibition of IL-6 production in macrophages): 40 µM | production of IL-6 [1]: decrease production of IL-6 | reduction of overall concentration of IL-1 [2, 6]: approximately 50% | IL-1 production, dose dependence [2, 7]: increasing suppression | release of IL-1 [2]: neither AI-2 nor its biosynthesis co-products, adenine and homocysteine, cause macrophages to release IL-1 or IL-6 | nitrite (breakdown product of nitric oxide) level [3]: near baseline levels | IC50 ([4]; read-out: IC50, prostaglandin level produced by recombinant COX-2): 40 µM

CC1=C(O)C(=O)CO1 [MHF, 5-methyl-4-hydroxy-3(2H)furanone]
quorum sensing activity [5]: displays quorum sensing activity | quorum-sensing activity ([5]; 500 μg/ml MHF): comparable to 2.5 μL enzymatically-synthesized AI-2 | IL-6 production ([1]; LPS-stimulated J774 macrophages): suppression of IL-6 production | IL-6 production ([1]; lipoteichoic acid-stimulated J774 macrophages): suppression of IL-6 production | production of IL-6 [1]: decrease production of IL-6 | reduction in IL-6 production ([1]; stimulated J774 macrophages, 500 μM MHF): 50% | concentration at which near maximal attenuation of IL-6 release occurs ([1]; stimulated J774 macrophages, little change at higher concentrations): 877 µM | concentration at which detectable attenuation of IL-6 release occurs ([1]; stimulated J774 macrophages, titration): 105 µM | IL-6 production ([1]; viral ribopolymer (polyCI)-stimulated J774 macrophages): suppression of IL-6 production | nitrite (breakdown product of nitric oxide) level [3]: near baseline levels | inhibition of Cox-2 prostaglandin synthetase activity ([4]; 500 μM MHF): inhibition of Cox-2 prostaglandin synthetase activity

Nc1ncnc2nc[nH]c12 [adenine, reference compound]
release of IL-6 [1]: neither AI-2 nor its biosynthesis co-products, adenine and homocysteine, cause macrophages to release IL-1 or IL-6 | release of IL-1 [2]: neither AI-2 nor its biosynthesis co-products, adenine and homocysteine, cause macrophages to release IL-1 or IL-6

O=C1O[C@H]([C@@H](O)CO)C(O)=C1O [ascorbic acid, reference compound]
effect on IL-6 production [1]: affect neither IL-1 nor IL-6 production | effect on IL-1 production [2]: affect neither IL-1 nor IL-6 production

N[C@@H](CCS)C(=O)O [homocysteine, reference compound]
release of IL-6 [1]: neither AI-2 nor its biosynthesis co-products, adenine and homocysteine, cause macrophages to release IL-1 or IL-6 | release of IL-1 [2]: neither AI-2 nor its biosynthesis co-products, adenine and homocysteine, cause macrophages to release IL-1 or IL-6

O=C[C@H](O)[C@H](O)[C@H](O)CO [ribose, reference compound]
quorum-sensing activity ([5]; 50 μM ribose): lacks quorum-sensing activity | effect on IL-6 production [1]: affect neither IL-1 nor IL-6 production | production of IL-6 [1]: effects no attenuation | effect on IL-1 production [2]: affect neither IL-1 nor IL-6 production | inhibition of PGE2 production ([4]; 500 μM ribose): inability of ribose (even at high concentrations, 500 μM) to inhibit PGE2 production
